This passage reports IC50 results from patent US20100311714A1, “1H-IMIDAZO[4,5-c]QUINOLINONE COMPOUNDS” (priority 2009, published 2010).

T1 sequence (P42338 with tags, fused parts or gaps limits assumed): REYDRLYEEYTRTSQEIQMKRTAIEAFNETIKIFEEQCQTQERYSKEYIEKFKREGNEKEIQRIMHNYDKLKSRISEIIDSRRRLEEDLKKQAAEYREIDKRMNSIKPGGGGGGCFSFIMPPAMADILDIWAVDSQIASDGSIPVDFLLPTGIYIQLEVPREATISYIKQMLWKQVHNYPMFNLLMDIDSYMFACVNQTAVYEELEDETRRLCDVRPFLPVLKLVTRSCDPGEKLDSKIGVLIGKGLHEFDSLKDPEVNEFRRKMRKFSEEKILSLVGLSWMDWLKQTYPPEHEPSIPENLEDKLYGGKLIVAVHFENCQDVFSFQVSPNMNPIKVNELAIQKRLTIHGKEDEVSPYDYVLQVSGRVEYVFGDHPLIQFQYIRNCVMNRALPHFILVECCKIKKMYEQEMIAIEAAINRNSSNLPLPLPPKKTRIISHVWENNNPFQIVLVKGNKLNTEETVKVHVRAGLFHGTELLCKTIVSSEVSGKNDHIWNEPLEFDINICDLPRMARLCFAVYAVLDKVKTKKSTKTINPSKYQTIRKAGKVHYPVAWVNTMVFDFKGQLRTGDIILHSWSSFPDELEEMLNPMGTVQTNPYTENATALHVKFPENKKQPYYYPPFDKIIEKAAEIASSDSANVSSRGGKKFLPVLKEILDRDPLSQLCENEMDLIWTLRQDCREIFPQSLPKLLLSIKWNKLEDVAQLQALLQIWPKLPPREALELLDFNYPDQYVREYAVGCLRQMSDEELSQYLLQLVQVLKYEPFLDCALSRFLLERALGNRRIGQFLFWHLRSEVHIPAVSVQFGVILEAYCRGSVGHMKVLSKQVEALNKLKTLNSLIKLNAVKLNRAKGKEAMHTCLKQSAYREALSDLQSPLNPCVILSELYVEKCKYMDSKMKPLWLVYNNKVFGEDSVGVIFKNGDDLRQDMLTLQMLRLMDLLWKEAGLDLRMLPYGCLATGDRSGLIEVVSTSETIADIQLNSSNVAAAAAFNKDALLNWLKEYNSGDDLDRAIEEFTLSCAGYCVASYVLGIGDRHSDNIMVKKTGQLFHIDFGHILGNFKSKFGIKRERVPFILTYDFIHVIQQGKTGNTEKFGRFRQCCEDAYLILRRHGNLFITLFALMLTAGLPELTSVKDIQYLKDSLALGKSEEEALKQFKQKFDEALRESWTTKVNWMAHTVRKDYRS

The first test addresses T1, PI3K beta (Homo sapiens, UniProt P42338).
T1 construct: for the full-length p110-b subunit are generated and fused by overlapping PCR; His tag (C); made in house; host or cells: baculovirus BV949; Tn5 (Trichoplusia ni) or TiniPro insect cells
The experiment in a line: PI3K beta kinase assay (Kinase-Glo luminescence). It counts as biochemical. To be noted: read-out: EPK_PI3Kbeta/IC50. The gist of the method: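 Kinase-Glo luminescence read out ATP left after a 60-min room-temperature reaction, started with ATP (1 μM final) on 25 nM His-tagged p85 iSH2–p110β (BV949) plus 10 μg/mL PI substrate in pH 7.5 Tris buffer. Percent inhibition at eight concentrations was fitted to a four-parameter logistic model for IC50.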
Regarding `COCc1ncc(-c2ccc3ncc4c(c3c2)n(-c2cccnc2C)c(=O)n4C)cc1OC` [Example 2.30, 8-(5-Methoxy-6-methoxymethyl-pyridin-3-yl)-3-methyl-1-(2-methyl-pyridin-3-yl)-1,3-dihydro-imidazo[4,5-c]quinolin-2-one], the IC50 was 395 nM. Turning to `Cc1nc(F)ccc1-n1c(=O)n(C)c2cnc3ccc(-c4cncc(N5CCC5)c4)cc3c21` [Example 7.6, 8-(5-Azetidin-1-yl-pyridin-3-yl)-1-(6-fluoro-2-methyl-pyridin-3-yl)-3-methyl-1,3-dihydro-imidazo[4,5-c]quinolin-2-one], the IC50 worked out at 965 nM.

With `COCc1ncc(-c2ccc3ncc4c(c3c2)n(-c2ccc(F)nc2C)c(=O)n4C)cc1OC` [Example 7.7, 1-(6-Fluoro-2-methyl-pyridin-3-yl)-8-(5-methoxy-6-methoxymethyl-pyridin-3-yl)-3-methyl-1,3-dihydro-imidazo[4,5-c]quinolin-2-one], the IC50 amounted to 359 nM. Consider `COc1cc(-c2ccc3ncc4c(c3c2)n(-c2ccc(F)nc2C)c(=O)n4C)cnc1CO` [Example 7.10, 1-(6-Fluoro-2-methyl-pyridin-3-yl)-8-(6-hydroxymethyl-5-methoxy-pyridin-3-yl)-3-methyl-1,3-dihydro-imidazo[4,5-c]quinolin-2-one], for which the IC50 amounted to 20 nM.

Turning to `COc1ccc(-n2c(=O)n(C)c3cnc4ccc(-c5cncc(N6CCC6)c5)cc4c32)c(OC)n1` [Example 8.11, 8-(5-Azetidin-1-yl-pyridin-3-yl)-1-(2,6-dimethoxy-pyridin-3-yl)-3-methyl-1,3-dihydro-imidazo[4,5-c]quinolin-2-one], the IC50 was determined as 730 nM. Same read-out and setting: under `COc1ccc(-n2c(=O)n(C)c3cnc4ccc(-c5cnc(C(OC)OC)c(OC)c5)cc4c32)c(OC)n1` [Example 8.13, 8-(6-Dimethoxymethyl-5-methoxy-pyridin-3-yl)-1-(2,6-dimethoxy-pyridin-3-yl)-3-methyl-1,3-dihydro-imidazo[4,5-c]quinolin-2-one] stands 265 nM. For the molecule `COc1ccc(-n2c(=O)n(C)c3cnc4ccc(-c5cnc(CO)c(OC)c5)cc4c32)c(OC)n1` [Example 8.14, 1-(2,6-Dimethoxy-pyridin-3-yl)-8-(6-hydroxymethyl-5-methoxy-pyridin-3-yl)-3-methyl-1,3-dihydro-imidazo[4,5-c]quinolin-2-one], the IC50 came to 1550 nM. Same read-out and setting: under `COc1cc(-c2ccc3ncc4c(c3c2)n(-c2ccc(N3CC(F)(F)C3)nc2C)c(=O)n4C)cnc1CO` [Example 24.4, 1-[6-(3,3-Difluoro-azetidin-1-yl)-2-methyl-pyridin-3-yl]-8-(6-hydroxymethyl-5-methoxy-pyridin-3-yl)-3-methyl-1,3-dihydro-imidazo[4,5-c]quinolin-2-one] stands 2270 nM; under `COc1cc(-c2ccc3ncc4c(c3c2)n(-c2ccc(N3CCCC3)nc2C)c(=O)n4C)cnc1CO` [Example 25.4, 8-(6-Hydroxymethyl-5-methoxy-pyridin-3-yl)-3-methyl-1-(2-methyl-6-pyrrolidin-1-yl-pyridin-3-yl)-1,3-dihydro-imidazo[4,5-c]quinolin-2-one], 269 nM.

In the case of `CCNc1cc(-c2ccc3ncc4c(c3c2)n(-c2ccc(N3CCCC3)nc2C)c(=O)n4C)cnc1CO` [Example 25.5, 8-(5-Ethylamino-6-hydroxymethyl-pyridin-3-yl)-3-methyl-1-(2-methyl-6-pyrrolidin-1-yl-pyridin-3-yl)-1,3-dihydro-imidazo[4,5-c]quinolin-2-one], the IC50 came out at 12 nM. Turning to `CCNc1cc(-c2ccc3ncc4c(c3c2)n(-c2ccc(N(C)CCO)nc2C)c(=O)n4C)cnc1CO` [Example 26.3, 8-(5-Ethylamino-6-hydroxymethyl-pyridin-3-yl)-1-{6-[(2-hydroxy-ethyl)-methyl-amino]-2-methyl-pyridin-3-yl}-3-methyl-1,3-dihydro-imidazo[4,5-c]quinolin-2-one], the IC50 worked out at 2010 nM.

Consider `Cc1nc(N2CCC(O)C2)ccc1-n1c(=O)n(C)c2cnc3ccc(-c4cnc(N)c(C(F)(F)F)c4)cc3c21` (stereo not shown) [Example 27.3, 8-(6-Amino-5-trifluoromethyl-pyridin-3-yl)-1-[6-(3-hydroxy-pyrrolidin-1-yl)-2-methyl-pyridin-3-yl]-3-methyl-1,3-dihydro-imidazo[4,5-c]quinolin-2-one], for which the IC50 came out at 36 nM. Turning to `CCOc1ccc(-c2ccc3ncc4c(c3c2)n(-c2ccc(N3CCC(O)C3)nc2C)c(=O)n4C)cn1` (stereo not shown) [Example 27.4, 8-(6-Ethoxy-pyridin-3-yl)-1-[6-(3-hydroxy-pyrrolidin-1-yl)-2-methyl-pyridin-3-yl]-3-methyl-1,3-dihydro-imidazo[4,5-c]quinolin-2-one], the IC50 is 904 nM.

For the molecule `Cc1nc(N2CCC(O)C2)ccc1-n1c(=O)n(C)c2cnc3ccc(-c4cncc(C(C)(C)O)c4)cc3c21` (stereo not shown) [Example 27.5, 8-[5-(1-Hydroxy-1-methyl-ethyl)-pyridin-3-yl]-1-[6-(3-hydroxy-pyrrolidin-1-yl)-2-methyl-pyridin-3-yl]-3-methyl-1,3-dihydro-imidazo[4,5-c]quinolin-2-one], the IC50 was 17 nM.

For the molecule `CNc1ncc(-c2ccc3ncc4c(c3c2)n(-c2ccc(N3CCC(OC)C3)nc2C)c(=O)n4C)cn1` (stereo not shown) [Example 28.2, 1-[6-(3-Methoxy-pyrrolidin-1-yl)-2-methyl-pyridin-3-yl]-3-methyl-8-(2-methylamino-pyrimidin-5-yl)-1,3-dihydro-imidazo[4,5-c]quinolin-2-one], the IC50 was found to be 299 nM. Still for that read-out and setting: the result for `COc1cc(-c2ccc3ncc4c(c3c2)n(-c2ccc(N3CCC(OC)C3)nc2C)c(=O)n4C)cnc1CO` (stereo not shown) [Example 28.3, 8-(6-Hydroxymethyl-5-methoxy-pyridin-3-yl)-1-[6-(3-methoxy-pyrrolidin-1-yl)-2-methyl-pyridin-3-yl]-3-methyl-1,3-dihydro-imidazo[4,5-c]quinolin-2-one] reads 175 nM; that for `Cc1nc(N2CC(O)C2)ccc1-n1c(=O)n(C)c2cnc3ccc(-c4cncc(C(C)(C)O)c4)cc3c21` [Example 29.1, 1-[6-(3-Hydroxy-azetidin-1-yl)-2-methyl-pyridin-3-yl]-8-[5-(1-hydroxy-1-methyl-ethyl)-pyridin-3-yl]-3-methyl-1,3-dihydro-imidazo[4,5-c]quinolin-2-one], 60 nM.

For the molecule `COc1cc(-c2ccc3ncc4c(c3c2)n(-c2ccc(N)nc2C)c(=O)n4C)cnc1CO` [Example 30.1, 1-(6-Amino-2-methyl-pyridin-3-yl)-8-(6-hydroxymethyl-5-methoxy-pyridin-3-yl)-3-methyl-1,3-dihydro-imidazo[4,5-c]quinolin-2-one], the IC50 turned out to be 426 nM.

Take `CNc1ncc(-c2ccc3ncc4c(c3c2)n(-c2ccc(N3CC[C@H](O)C3)nc2C)c(=O)n4C)cc1Cl` [Example 32.4, 8-(5-Chloro-6-methylamino-pyridin-3-yl)-1-[6-((S)-3-hydroxy-pyrrolidin-1-yl)-2-methyl-pyridin-3-yl]-3-methyl-1,3-dihydro-imidazo[4,5-c]quinolin-2-one]: the IC50 amounted to 106 nM. Turning to `COc1cc(-c2ccc3ncc4c(c3c2)n(-c2ccc(N3CC[C@H](O)C3)nc2C)c(=O)n4C)cnc1CO` [Example 32.7, 8-(6-Hydroxymethyl-5-methoxy-pyridin-3-yl)-1-[6-((S)-3-hydroxy-pyrrolidin-1-yl)-2-methyl-pyridin-3-yl]-3-methyl-1,3-dihydro-imidazo[4,5-c]quinolin-2-one], the IC50 was 198 nM. For the molecule `CNc1ncc(-c2ccc3ncc4c(c3c2)n(-c2ccc(N3CC[C@@H](O)C3)nc2C)c(=O)n4C)cn1` [Example 34.1, 1-[6-((R)-3-Hydroxy-pyrrolidin-1-yl)-2-methyl-pyridin-3-yl]-3-methyl-8-(2-methylamino-pyrimidin-5-yl)-1,3-dihydro-imidazo[4,5-c]quinolin-2-one], the IC50 stood at 1100 nM. Still for that read-out and setting: under `CCNc1cc(-c2ccc3ncc4c(c3c2)n(-c2ccc(N3CC(F)(F)C(F)(F)C3)nc2C)c(=O)n4C)cnc1CO` [Example 35.2, 8-(5-Ethylamino-6-hydroxymethyl-pyridin-3-yl)-3-methyl-1-[2-methyl-6-(3,3,4,4-tetrafluoro-pyrrolidin-1-yl)-pyridin-3-yl]-1,3-dihydro-imidazo[4,5-c]quinolin-2-one] stands 78.5 nM.

The same test, now with this note: read-out: PI3Kbeta/IC50.
For `CNC(=O)c1ccc(-c2ccc3ncc4c(c3c2)n(-c2cccnc2C)c(=O)n4C)cc1` [Example 2.4, N-Methyl-4-[3-methyl-1-(2-methyl-pyridin-3-yl)-2-oxo-2,3-dihydro-1H-imidazo[4,5-c]quinolin-8-yl]-benzamide], the IC50 turned out to be 682 nM. Same read-out and setting: under `Cc1ncccc1-n1c(=O)n(C)c2cnc3ccc(-c4cnc5[nH]ccc5c4)cc3c21` [Example 2.8, 3-Methyl-1-(2-methyl-pyridin-3-yl)-8-(1H-pyrrolo[2,3-b]pyridin-5-yl)-1,3-dihydro-imidazo[4,5-c]quinolin-2-one] stands 173 nM; under `Cn1c(=O)n(-c2cccnc2F)c2c3cc(-c4cnc5[nH]ccc5c4)ccc3ncc21` [Example 6.3, 1-(2-Fluoro-pyridin-3-yl)-3-methyl-8-(1H-pyrrolo[2,3-b]pyridin-5-yl)-1,3-dihydro-imidazo[4,5-c]quinolin-2-one], 112 nM.
